Read-outs that look alike come from different tables or passages of the source.
What was measured:
PC-3 = format: cell-based; details: MTT, 48 hours
Method: (§1) MDA-MB-231, MCF-7, DU-145, PC-3, and NIH-3T3 cell lines were procured from the American Type Culture Collection and used within ten consecutive passages to ensure consistent cell behavior. MDA-MB-231, MCF-7, and NIH-3T3 cells were maintained at 37 °C and 5% CO2 in Dulbecco's modified Eagle's medium (DMEM) high glucose (Hyclone) supplemented with 10% fetal bovine serum (FBS) and 1% Antibiotic-Antimycotic (Gibco), while DU-145 and PC-3 cells were grown in RPMI-1640 supplemented with the same concentration of FBS and Antibiotic-Antimycotic. The media was replenished every 2 days. Cells were checked for mycoplasma at regular intervals using a PCR-based Mycoplasma detection kit plasmocin prophylactic (InvivoGen). In all experiments, cells were maintained in serum-free DMEM for 6 h before peptide treatment. Peptide treatment was done in the media containing 0.1% fetal bovine serum for 48 h in all the experiments unless otherwise stated.
(§2) Cell viability was determined by 3-[4,5-dimethylthiazol-2-yl]-2,5 diphenyl tetrazolium bromide (MTT) assay as described earlier ([52]). ProTox-II "Prediction of Toxicity of Chemicals" web server was used for toxicology assessment ([19]). See the Supporting Information for full experimental details.
(§3) Full Experimental Method for Cell Viability Assay:
(§4) Cell viability of murine NIH- 3T3 cells, as well as MDA- MB -231 , MC F-7, PC- 3, and DU-145 cells, wa s assessed through the MT T assay as described previously(1). Approximately
(§5) 5000 cells per well were seeded in a 96-well plate and allowed to incubate overnight for attachment. Following attachment, the growth medium was replaced wit h a fresh medium
(§6) containing serial dilutions of peptides. The cells we re then incubated for 48 hours in a 5% CO2 incubator . After incubation, 10 μl of a 5 mg/mL MT T solution was introduced to each
(§7) well and left to incubate for an additional 2 hours . Subsequently, the entire medium, along wit h the MT T solution, was aspirated, and the remaining formazan crystals were dissolved
(§8) in 200 μl of DMSO. The absorbance was measured at 595 nm using a Biotek Synergy 2 Plate Reader. […]
(§9) ProTox-II "Prediction of Toxicity of Chemicals" we b server was used for toxicology assessment. […]

MDA-MB-231 = format: cell-based; details: MTT, 48 hours
Method: as §1, §2, §3, §4, §5, §6, §7, §8, §9

MCF-7 = format: cell-based; details: MTT, 48 hours
Method: as §1, §2, §3, §4, §5, §6, §7, §8, §9

DU-145 = format: cell-based; details: MTT, 48 hours
Method: as §1, §2, §3, §4, §5, §6, §7, §8, §9

NIH-3T3 = format: cell-based, murine; details: MTT, 48 hours; normal cells
Method: as §1, §2, §3, §4, §5, §6, §7, §8, §9

MCF-7 cells = experiment: Wound healing assay; format: cell-based; details: scrambled peptides compared to LA3IK and RP-7 at equivalent concentrations
Method: (§10) The wound healing assay was performed using two breast cancer cell lines, MDA-MB-231 and MCF-7, and two prostate cancer cell lines, PC-3 and DU-145, to evaluate the antimigratory capacity of the peptides. […] The cells were grown to approximately 80% confluency in 12-well tissue culture plates, and a cell-free area was created by scraping the monolayer. The peptides were added, and the cells were incubated at 37 °C with 5% CO2 for 24 h. Wound closure was assessed by imaging the wounds at 0 and 24 h, and the wound areas were quantified using ImageJ software (https://imagej.net/ij/). In the transwell invasion assay, MDA-MB-231 cells were serum starved for 4 h followed by a pretreatment with increasing concentrations of each peptide in a 0.1% serum-containing DMEM for 24 h. The cells were then trypsinized, resuspended in same media for the second treatment of peptides, and counted. Next, 40,000 cells were resuspended in 0.1% serum containing DMEM and added to the upper chamber of Transwell plates (Corning Life Sciences) with a polyethylene terephthalate membrane (6.4 mm diameter, 8 μm pore size). The bottom chambers were filled with DMEM containing 10% FBS as a chemoattractant. The transwell plates were incubated at 37 °C with 5% CO2 for 24 h to allow the invasion of cells through the membrane. The invaded cells on the lower side of the membrane were fixed with 4% paraformaldehyde for 15 min, followed by a PBS wash. The membrane inserts were further fixed with ice-cold methanol for 20 min and stained with 0.25% (w/v) crystal violet. After incubation, the noninvasive cells on the upper surface of the membrane were gently removed using a cotton swab. Random fields were chosen for imaging, and the number of invaded cells was counted using ImageJ software. The results were expressed as the average number of invaded cells compared with the control.

MDA-MB-231 cells [1] = experiment: Wound healing assay; format: cell-based; details: for inhibition of migration: equimolar peptide concentrations, compared to untreated cells
Method: as §10

PC-3 cells = experiment: Wound healing assay; format: cell-based; details: scrambled peptides compared to LA3IK and RP-7 at equivalent concentrations
Method: as §10

DU-145 cells [2] = experiment: Wound healing assay; format: cell-based; details: scrambled peptides compared to LA3IK and RP-7 at equivalent concentrations
Method: as §10

DU-145 cells [3] = experiment: Quantitative real-time PCR of EMT-related genes; format: cell-based; details: 48 h, 90 μM; for inhibition of the majority of the genes examined in the PCR analysis: except for SNAIL
Method: 18S RNA transcript levels were used for internal control. […] E-cadherin and SNAIL are increased and decreased, respectively, when probed with antibodies specific for these proteins as compared to the untreated. […] Densitometry was determined and normalized to total protein or β-actin. Peptide concentration: 90 μM. All the assays were performed in triplicates and the results are expressed as means ± SD. […] EMT, epithelial-mesenchymal transition; MMP-9, matrix metalloproteinase 9; NF-κB, nuclear factor kappa B.
Total RNA was extracted using the TRIzol reagent (Invitrogen). One microgram of total RNA was used for complementary DNA reverse transcription using the Superscript-III First Strand Synthesis kit (Invitrogen) following the manufacturer's protocol. All real-time PCR reactions were performed in duplicates in a 20 μl volume using SYBR Green Master Mix (Invitrogen) in a Realplex2 Mastercycler ep gradient S thermal cycler (Eppendorf). The PCR program followed for all the primers was an activation at 95 °C for 15 min, followed by 40 cycles of 95 °C for 30 s, 54 °C for 1 min, and 72 °C for 45 s. The reaction was finally put to hold at 4 °C. Subsequently, 18S was used as the reference gene for the mRNA levels. Relative change in gene expression was calculated according to the ΔΔCt method ([53], [54]).

[4] = mouse, in vivo, iv, 5 mg/kg
[5] = Pharmacokinetic studies in CD1 mice; details: mouse, in vivo, iv, 5 mg/kg
in vitro [6] = details: plasma
Method: CD1 mouse plasma isolated using acidified citrate dextrose was purchased from BioIVT. Each peptide's dimethyl sulfoxide stock was then mixed into the plasma, resulting in a 2 μM final concentration. An aliquot was immediately collected for a zero time point and quenched with an equal volume of acetonitrile containing 0.2% formic acid and 200 ng/ml tolbutamide IS. […] Samples were withdrawn at specific intervals and processed similarly to the zero time point. The supernatant obtained after vortexing and centrifugation was subjected to LC-MS/MS analysis as previously detailed. A control incubation was performed using 0.9% NaCl (saline).

in vitro [7] = details: microsomes
Method: An NADPH-regenerating system (1.7 mg/ml NADP, 7.8 mg/ml glucose-6-phosphate, 6 U/ml glucose-6-phosphate dehydrogenase in 2% w/v NaHCO3/10 mm MgCl2) was added for analysis of Phase I metabolism after heating both the regenerating solution and the sample tubes to 37 °C for 5 min in a 37 °C shaking water bath. The incubation was continued and at varying time points after addition of phase I cofactors, the reaction was stopped by the addition of 0.5 ml of acetonitrile containing IS and formic acid such that the final concentration of IS was 100 ng/ml and acid was 0.1%. Time 0 samples were stopped with the acetonitrile solution while still on ice prior to addition of the NADPH regenerating system and compound, which were subsequently added. The samples were incubated for 10 min at room temperature and then spun at 16,100g for 5 min in a microcentrifuge at 4 °C. The supernatant was analyzed by LC-MS/MS. The method described by McNaney et al. was used with modification for determination of metabolic stability half-life by substrate depletion ([59]). A “% remaining” value was used to assess the metabolic stability of a compound over time. The LC-MS/MS peak area of the incubated sample at each time point was divided by the LC-MS/MS peak area of the time 0 (T0) sample and multiplied by 100. The natural Log (LN) of the % remaining of compound was then plotted versus time (in min) and a linear regression curve was plotted going through y-intercept at LN (100).

in vivo = details: female, CD1, mouse, iv, 5 mg/kg
MDA-MB-231 cells [8] = experiment: Western blot of MIEN1 signaling pathway proteins; format: cell-based; details: mean values of immunoblot densitometry
Method: Cells were exposed to the peptides and subjected to Western blot analysis with the indicated antibodies. […] Cytoplasmic and nuclear cell lysate extracts of EGF only and EGF plus peptide-treated cells were probed for p65 and p50. Lamin A/C and β-actin were used as nuclear and cytoplasmic loading control respectively. Densitometry was determined with immunoblots (N = 3) and normalized to total protein or β-actin for whole cell lysates and cytoplasmic fraction of peptide-treated MDA-MB-231 cells. In case of nuclear lysates, the immunoblots were normalized with Lamin A/C. Bar graphs are densitometric data (means ± SD). […] EGF concentration: (10 ng/ml); Peptide concentration: 90 μM. EGF, epidermal growth factor; MIEN1, migration and invasion enhancer 1; NF-κB, nuclear factor kappa B.
Western blot analysis was performed according to standard protocols to assess the effects of MIEN1-derived peptides and their analogs on MDA-MB-231 cells and DU-145 cells. Cell lysates were prepared using radioimmunoprecipitation assay buffer and quantified for protein content by bicinchoninic acid method. […] Protein blocking with 5% bovine serum albumin was followed by incubation with primary antibodies specific to various proteins at 4 °C for 8 to 10 h. The membrane was then washed three times in Tris Buffered Saline with Tween 20 and incubated with the appropriate secondary antibody. Protein bands were visualized using the Alpha Innotech chemiluminescent detection system. In case of MDA-MB-231 cells, cytoplasmic and nuclear extracts were isolated to investigate the effects of peptides and/or EGF stimulation. Prior to exposure to the cells, the test peptides (90 μM) were incubated with EGF (10 ng/ml) in media at 4 °C for 15 min. The untreated MDA-MB-231 cells received EGF alone at the same concentration. The isolation of cytoplasmic and nuclear fractions was performed using the Subcellular Protein Fractionation Kit for Cultured Cells from Thermo Fisher Scientific (cat #78840) following the manufacturer's guidelines. For Western blot experiments, 20 μg of purified cytoplasmic and nuclear fraction was used.
Densitometry analysis of Western blot data was conducted using the AlphaView-FluorChem HD2 software of the Alpha Innotech chemiluminescent detection system (https://www.cambridgescientific.com/product/alpha-innotech-fluorchem-hd2-gel-imaging-system). To quantify band intensities, a uniform rectangle was drawn around each band, and background subtraction was applied to determine the total pixel density for each lane. Further calculations, including the determination of the ratio of phosphorylated proteins to total proteins or other loading controls, were carried out using Microsoft Excel. […]

Molecule | IC50 (PC-3) [µM] | IC50 (MDA-MB-231) [µM] | IC50 (MCF-7) [µM] | IC50 (DU-145) [µM] | IC50 (NIH-3T3) [µM] | antimigratory activity in wound healing assay (MCF-7 cells) | inhibition of migration (MDA-MB-231 cells [1]) | antimigratory activity in wound healing assay (PC-3 cells) | antimigratory activity in wound healing assay (DU-145 cells [2]) | inhibition of the majority of the genes examined in the PCR analysis (DU-145 cells [3]) | further results
Ac-LAKAVI-NH2 [LA3IK-SCR] | 319 ± 13.6 | 243 ± 8.16 | 133 ± 9.52 | 352 ± 7.18 | > 600 | reduced antimigratory activity | nonsignificant inhibition | reduced antimigratory activity | reduced antimigratory activity | statistically nonsignificant inhibition | gene expression in Zeb-1 and SNAIL (DU-145 cells [3]): statistically diminished
CC[C@@H](C)[C@@H](NC(=O)[C@@H](C)NC(=O)[C@@H](CC(C)C)NC(C)=O)C(=O)N[C@H](C)C(=O)N[C@@H](C(=O)N[C@H](CCCCN)C(N)=O)C(C)C [D-LA3IK] |  |  |  |  |  |  |  |  |  |  | AUC(0-t) [4]: 3400 ng·h/mL; Cmax [4]: 3570 ng/mL; clearance [4]: 24.5 mL/min/kg; half-life [4]: 3.58 h; Vd [5]: 1.57 L/kg; remaining at 24 h, 2 μM (in vitro [6]; CD1, mouse): 75%; half-life (in vitro [6]; mouse): > 24 h; decrease in cell migration compared to L counterpart (MDA-MB-231 cells [1]; identical concentrations of D- and L-isomer): 30.2%; remaining at 2 h, 2 μM (in vitro [7]; male, Institute of Cancer Research/CD-1, mouse, pH 7.5): 100%; half-life (in vitro [7]; mouse): > 2 h; MRT (in vivo): 1.03 h; Tmax (in vivo): 4.8 min; Vd (in vivo): 7.58 L/kg; greater inhibition of FAK phosphorylation than L-peptide counterpart (MDA-MB-231 cells [8]): 34.2%; greater inhibition of SRC phosphorylation than L-peptide counterpart (MDA-MB-231 cells [8]): 48.8%
Ac-RPPLVIC-NH2 [RP-7 SCR] | 128 ± 11.7 | 156 ± 8.15 | 150 ± 10.3 | 137 ± 5.98 | > 600 | reduced antimigratory activity | nonsignificant inhibition | reduced antimigratory activity | reduced antimigratory activity | statistically nonsignificant inhibition | expression of SLUG and Zeb-1 (DU-145 cells [3]): reduced expression

Reference: article PMC10878790 (The Journal of Biological Chemistry, 2024)
